Legend:
5-LO [1] = assay: Effect on 5-LO catalysed oxidation of arachidonic acid; type: biochemical
human neutrophils [2] = assay: AA-enhanced chemiluminescence in human neutrophils; type: cell-based; conditions: neutrophils pretreated with compound
Method: Arachidonic acid (AA) is a natural agonist which stimulates oxygen radical production in neutrophils leading to tissue damage during inflammation. Studies were conducted to examine whether or not the Lx compounds could antagonise the effects of AA. Neutrophils were pretreated with Lx compounds and then examined for chemiluminescence response to AA addition. […] The effect of Lx compounds on AA-enhanced chemiluminescence in human neutrophils is shown graphically in FIG. 11.

12-LO = biological target: T1, 12-LO (Sus scrofa, UniProt P16469); assay: 12-LO catalysed oxidation of the nitro compounds (substrate test); type: biochemical, porcine; conditions: pH 7.4 buffer, UV 234 nm
T1 construct: purchased Cayman Chemical Company
T1 sequence (P16469 1-663): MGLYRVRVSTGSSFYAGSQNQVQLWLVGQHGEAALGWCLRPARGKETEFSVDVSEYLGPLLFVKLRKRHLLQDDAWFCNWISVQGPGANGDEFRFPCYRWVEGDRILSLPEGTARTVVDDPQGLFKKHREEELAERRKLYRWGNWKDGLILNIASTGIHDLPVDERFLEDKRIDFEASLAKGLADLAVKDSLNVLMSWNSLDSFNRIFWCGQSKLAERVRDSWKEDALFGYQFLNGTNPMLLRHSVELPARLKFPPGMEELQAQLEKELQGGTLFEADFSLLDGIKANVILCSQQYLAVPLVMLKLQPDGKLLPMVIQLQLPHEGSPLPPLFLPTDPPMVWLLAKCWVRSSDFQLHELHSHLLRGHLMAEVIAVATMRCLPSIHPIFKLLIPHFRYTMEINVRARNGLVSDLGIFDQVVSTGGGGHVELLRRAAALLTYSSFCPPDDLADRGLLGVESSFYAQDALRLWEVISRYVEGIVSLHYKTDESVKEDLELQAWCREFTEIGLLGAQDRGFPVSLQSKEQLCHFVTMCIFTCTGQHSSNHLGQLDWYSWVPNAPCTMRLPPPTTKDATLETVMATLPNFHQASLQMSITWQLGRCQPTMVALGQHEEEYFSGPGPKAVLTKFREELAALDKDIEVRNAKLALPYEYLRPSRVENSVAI
Method: (§1) Based on this consideration, 5-LO, 12-LO and 15-LO catalysed oxidation of the nitro compounds (4a, 4b, 6a, 6b, 8a and 8b) was investigated. Each of the nitro compounds was treated with 15-LO in pH 9.0 buffer (or 5-LO in pH 6.3 buffer and 12-LO in pH 7.4 buffer), and the formation of 15-hydroperoxy derivatives (or 5-hydroperoxy or 12-hydroperoxy derivatives) over time was monitored by UV spectroscopy at 234 nm.

5-LO [3] = assay: 5-LO catalysed oxidation of the nitro compounds (substrate test); type: biochemical; conditions: pH 6.3 buffer, UV 234 nm
Method: as §1

human neutrophils [4] = assay: Neutrophil degranulation: release of vitamin B12 binding protein; type: cell-based; conditions: 20 μg/ml
Method: (§2) The activation of human neutrophils by nitro compounds was assessed by the ability to stimulate superoxide production (chemiluminescence response) and release of lysosomal enzymes from specific and azurophilic granules. Neutrophils were prepared from whole blood taken from normal healthy volunteers by the rapid-single step procedure^(41). Briefly, blood anticoagulated with heparin was carefully layered on a hypaque-ficoll medium of 1.114 g/ml and centrifuged in swing-out-buckets at 200 g/30 min. The leukocytes were resolved into two bands and the erythrocytes sedimented at the bottom of the tube. The second leukocyte band approximately 0.7 cm from the mononuclear cell containing band at the interface contained neutrophils of >98% purity and >99% viability (trypan blue dye exclusion criteria). The neutrophils were carefully harvested with a pasteur pipette, and washed and resuspended in tissue culture medium. The respiratory burst response of neutrophils was assessed by measuring superoxide production by the lucigenin dependent chemiluminescence assay essentially as described previously^(42). Briefly, 1×10^6 neutrophils (100 μl) in HBSS were treated with the nitro analogues of fatty acids (100 μl), then lucigenin was added and the volume made up. […]

human neutrophils [5] = assay: Neutrophil degranulation: release of β-glucuronidase; type: cell-based; conditions: 20 μg/ml
Method: as §2

[6] = system: Plasmodium falciparum isolates 3D7, FC27, K+; assay: Radiometric (3H-hypoxanthine) assay on asexual blood stages of P. falciparum; type: cell-based
In short: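 Isolates grown in human O+ erythrocytes with 10% AB serum at 37 °C; cultures at 1×10^8 erythrocytes/ml were exposed to the fatty acids for 4 h, then pulsed with 3H-hypoxanthine for a further 18 h. Incorporated radioactivity was counted and expressed as % growth inhibition versus diluent-treated cultures.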

SMILES: CCCCC/C=C\C/C=C\C/C=C\C/C=C\CCCC(CCC(=O)O)[N+](=O)[O-] (centres unmarked) [Lx7, (a11-Z)-4-Nitrotricosa-8,11,14,17-tetraenoic acid]
- Effect on 5-LO catalysed oxidation of AA (5-LO [1]): Activatory
- Inhibition of AA-stimulated oxygen radical production (chemiluminescence) (human neutrophils [2]): particularly evident
- Substrate for 12-LO (12-LO; listed as 6b): substrate
- Substrate for 12-LO (12-LO; listed as (all-Z)-4-nitrotricosa-8,11,14,17-tetraenoic acid): good substrate
- Substrate for 5-LO (5-LO [3]): not for 5-LO
- Release of vitamin B12 binding protein (specific granule marker) (human neutrophils [4]): as potent as 20:4n-6 and 22:6n-3
- Release of β-glucuronidase (azurophilic granule marker) (human neutrophils [5]): as potent as 20:4n-6 and 22:6n-3
- Antimalarial activity (in words) [6]: did not have appreciable antimalarial activity

Reference: patent US6924309B2 (Children, Youth and Women's Health Service Incorporated, priority 1999, dated 2005)
